From BindingDB's records for doi:10.1016/j.ejmech.2013.09.015 (China Pharmaceutical University, 2013) come the findings set out here.

The experiment is described as follows: Agonist activity at VDR in human HL60 cells assessed as induction of cell differentiation after 96 hrs by NBT reduction assay.

Consider `C=C1/C(=C\C=C2/CCC[C@]3(C)[C@@H]([C@H](C)CC[C@@H](O)C(C)C)CC[C@@H]23)C[C@@H](O)C[C@@H]1O` [TACALCITOL], for which the EC50 came to 0.0071 µM.
With `CCC(CC)(c1ccc(OCC(=O)C(C)(C)C)c(C)c1)c1ccc(C(=O)NCC(=O)OC)n1C` the figure was 0.023 µM; with `CCC(CC)(c1ccc(OCC(O)C(C)(C)C)c(C)c1)c1ccc(C(=O)NCCCO)n1C` (stereo not given), 0.15 µM; with `CCn1c(C(=O)NCCO)ccc1C(CC)(CC)c1ccc(OCC(O)C(C)(C)C)c(C)c1` (stereo not given), 5.64 µM.
With `CCn1c(C(=O)N[C@@H](C)CO)ccc1C(CC)(CC)c1ccc(OCC(O)C(C)(C)C)c(C)c1` (stereo not given in full) the figure was 0.0011 µM; with `CCC(CC)(c1ccc(OCC(O)C(C)(C)C)c(C)c1)c1ccc(C(=O)NCCC(=O)O)n1C` (stereo not given), 1.6 µM.
With `CCC(CC)(c1ccc(OCC(O)C(C)(C)C)c(C)c1)c1ccc(C(=O)NCC(=O)O)n1C` (stereo not given) the figure was 4.95 µM.
In the case of `CCC(CC)(c1ccc(OCC(O)C(C)(C)C)c(C)c1)c1ccc(C(=O)N[C@@H](C)CO)n1C` (stereo not given in full), the EC50 was determined as 0.57 µM.
For `CCC(CC)(c1ccc(OCC(=O)C(C)(C)C)c(C)c1)c1ccc(C(=O)NCCC(=O)OC)n1C` the value was 0.79 µM; for `CCn1c(C(=O)NCC(=O)OC)ccc1C(CC)(CC)c1ccc(OCC(=O)C(C)(C)C)c(C)c1`, 1.83 µM.
For `CCn1c(C(=O)N[C@@H](C)C(=O)O)ccc1C(CC)(CC)c1ccc(OCC(O)C(C)(C)C)c(C)c1` (stereo not given in full), the EC50 turned out to be 0.0041 µM.
On to `CCC(CC)(c1ccc(OCC(=O)C(C)(C)C)c(C)c1)c1ccc(C(=O)N[C@@H](C)C(=O)O)n1C`, for which the EC50 came out at 2.63 µM.
With `CCC(CC)(c1ccc(OCC(O)C(C)(C)C)c(C)c1)c1ccc(C(=O)N[C@H](CO)CCO)n1C` (stereo not given in full) the figure was 0.2 µM; with `CCn1c(C(=O)N[C@H](CO)CCO)ccc1C(CC)(CC)c1ccc(OCC(O)C(C)(C)C)c(C)c1` (stereo not given in full), 0.11 µM; with `CCC(CC)(c1ccc(OCC(=O)C(C)(C)C)c(C)c1)c1ccc(C(=O)N[C@@H](CC(=O)O)C(=O)O)n1C`, 0.41 µM.

Usually EC50 stands for the concentration that produces a half-maximal response.
